In patent US12398180B2, “Treatment of non-alcoholic fatty liver disease” (NURITAS LIMITED, priority 2019, dated 2025):
Read-outs that look alike come from different tables or passages of the source. Square brackets hold non-standard residues; d marks the D form. Peptide text beside a SMILES is read from it.

How the values were obtained:
[1] = system: human skeletal muscle cells; test: Glucose uptake in skeletal muscle cells; format: cell-based; conditions: compared with control (FIG. 5)
[2] = Stability in-vivo
[3] = system: primary human hepatic stellate cells; test: Anti-fibrotic effect in TGF-β stimulated primary hepatic stellate cells (ACTA2 staining); format: cell-based; conditions: 10 μM
Description: The procedure was performed as described above for the CY5 labelled peptide imaging in HSkMCs with a few minor modifications. Primary hepatic stellate cells were investigated as they are considered to be the most relevant profibrogenic cells operating in acute and chronic liver diseases. The stellate cells were seeded directly onto the glass coverslips at a density of 5,000 cells/mL. After starvation, the cells were treated with pep_1E99R5 (5 ng/mL) or Elafibranor (10 μM) for 6 hours. The cells were washed and subsequently treated with 5 ng/ml […] (Bio Techne, Minneapolis, MN, United States) for 24 hours to induce fibrosis. The cells were fixed and stained with ACTA2 antibody (Assay Genie, Dublin, Ireland), a marker of fibroblast activation.
The confocal images were analysed with custom Python scripts using the scikit-image library version 0.15. The cells and nuclei were segmented using a simple threshold computed using the mean value of the image. Using the Nuclei as a seed we separated the cells in the cell mask using watershed segmentation. Cell size was then quantified in pixels. [Stéfan van der Walt, Johannes L. Schönberger, Juan Nunez-Iglesias, Frangois Boulogne, Joshua D. Warner, Neil Yager, Emmanuelle Gouillart, Tony Yu and the scikit-image contributors. scikit-image: Image processing in Python. PeerJ 2:e453 (2014)

[4] = PK profile (half-life); conditions: in vivo
[5] = system: lipoproteins; conditions: binding to lipoproteins; cited from earlier work
[6] = in humans; cited from earlier work
[7] = system: C57BL/6 mice; test: Acetaminophen (APAP)-induced acute liver injury mouse model, ALT/AST; format: in vivo; conditions: inferred from ALT/AST time course
Description: Animals for Acetaminophen (APAP)-induced Acute Liver Injury Mouse Model: All animal procedures were performed by Melior Discovery (Exton, PA, USA) in accordance with Institutional Animal Care and Use (IACUC) guidelines in an AAALAC-accredited facility. […] Studies were performed with 8-week-old male C57BL/6 mice obtained from the Charles River Laboratory and were randomly assigned to the treatment groups based on body mass. Mice were acclimated for 7 days and housed 4 per cage on a 12-hour light/dark cycle with ad libitum access to standard rodent chow and water.

[8] = system: Human primary cells; test: Cytotoxicity in primary human cell-based systems (SRB / alamarBlue); conditions: at the concentration tested
Description: Systems are derived from either single cell types or co-culture systems. Adherent cell types are cultured in 96 or 384-well plates until confluence, followed by the addition of PBMC (SAg and LPS systems). The BT system consists of CD19+ B cells co-cultured with PBMC and stimulated with a BCR activator and low levels of TCR stimulation. Test agents prepared in either DMSO (small molecules; final concentration s 0.1%) or PBS (biologics) are added at the indicated concentrations 1-hr before stimulation, and remain in culture for 24 h or as otherwise indicated (48 h, MyoF system; 72 h, BT system (soluble readouts); 168 h, BT system (secreted IgG)). […] Soluble factors from supernatants are quantified using either HTRF® detection, bead-based multiplex immunoassay or capture ELISA. Overt adverse effects of test agents on cell proliferation and viability (cytotoxicity) are detected by sulforhodamine B (SRB) staining, for adherent cells, and alamarBlue® reduction for cells in suspension. For proliferation assays, individual cell types are cultured at subconfluence and measured at time points optimized for each system (48 h: 3C and CASM3C systems; 72 h: BT and HDF3CGF systems; 96 h: SAg system). […]

Question: Which “glucose uptake in human skeletal muscle cells in-vitro” value [1] does the source give for “1(clac)wKE(Me)EC1GK(Me)PLVk-OH (Ac-[dW]KEXCGKXLV[dK]-OH; thioether (positions not given here); not fully specified (residues 4, 8, bridges); printed as 1(clac)wKE(Me)EC1GK(Me)PLVk-OH) [SEQUENCE ID NO: 3]” here?
Answer: The value was “significantly increases”.

Question: What about the stability in-vivo [2] of the same molecule?
Answer: The stability in-vivo was “enhanced stability”.

Question: For `CSc1ccc(C(=O)/C=C/c2cc(C)c(OC(C)(C)C(=O)O)c(C)c2)cc1` [Elafibranor], which “anti-fibrotic effect in stimulated stellate cells” value [3] is on record?
Answer: The value was “anti-fibrotic effects”.

Question: For `CC(C)C[C@H](NC(=O)[C@@H]1CCCN1C(=O)[C@H](CCCCN)NC(=O)CNC(=O)[C@@H](C)NC(=O)[C@H](CCC(=O)O)NC(=O)[C@H](CC(=O)O)NC(=O)[C@@H](CCCCN)NC(=O)[C@H](N)Cc1c[nH]c2ccccc12)C(=O)N[C@@H](C(=O)N[C@H](CCCCN)C(=O)O)C(C)C` [SEQ ID 2, {d}W{d}KDE{d}AGKPL{d}V{d}K] (H-[dW][dK]DE[dA]GKPL[dV][dK]-OH; N-terminus and C-terminus assumed), which half-life [4] is on record?
Answer: The half-life was 1.55 h.

Question: Which fraction unbound [5] does the source give for `C[C@@H](O)[C@@H]1NC(=O)[C@H](CCCCN)NC(=O)[C@@H](Cc2c[nH]c3ccccc23)NC(=O)[C@H](Cc2ccccc2)NC(=O)[C@@H](NC(=O)[C@H](N)Cc2ccccc2)CSSC[C@@H](C(=O)N[C@H](CO)[C@@H](C)O)NC1=O` [octreotide] here?
Answer: The fraction unbound was 0.65.

Question: What about the half-life [6] of the same molecule?
Answer: Its half-life is “about 100 min”.

Question: With `CC(C)C[C@H](NC(=O)[C@@H]1CCCN1C(=O)[C@H](CCCCN)NC(=O)CNC(=O)[C@H](C)NC(=O)[C@H](CCC(=O)O)NC(=O)[C@H](CC(=O)O)NC(=O)[C@H](CCCCN)NC(=O)[C@@H](N)Cc1c[nH]c2ccccc12)C(=O)N[C@H](C(=O)N[C@@H](CCCCN)C(=O)O)C(C)C` [pep_260] (H-WKDEAGKPLVK-OH; N-terminus and C-terminus assumed) as the molecule, how does the “duration of potent functionality in mice” value [7] read?
Answer: Its value is 2 h.

Question: What about the cytotoxicity [8] of the same molecule?
Answer: Its cytotoxicity is “not cytotoxic”.

Question: For `NC(=O)CC[C@@H]1NC(=O)[C@H](Cc2ccccc2)NC(=O)[C@H](Cc2ccc(O)cc2)NC(=O)[C@@H](N)CSSC[C@@H](C(=O)N2CCC[C@H]2C(=O)N[C@@H](CCCN=C(N)N)C(=O)NCC(N)=O)NC(=O)[C@H](CC(N)=O)NC1=O` [vasopressin], which half-life [6] is on record?
Answer: Its half-life is 0.167 to 0.583 h.
